Where two headings read alike, the source gives them in different places.
Legend:
FGFR1 = target: T1, FGFR1 (Homo sapiens, UniProt P11362); experiment: FGFR1 kinase activity inhibition assay (LanthaScreen TR-FRET); format: biochemical; conditions: FGFR1 kinase, TR-FRET; read-out: IC50 (nM) FGFR1
T1 construct: cytoplasmic domain [398-822 (terminal) amino acids]; purchased Carna 08-133
Outline: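 Emission ratio 520 nm/495 nm by TR-FRET after stopping reaction with 10 mM EDTA and 60 min incubation at 22°C. Inhibition normalized between no-enzyme (min) and DMSO (max) controls, then fitted to a four-parameter curve (Top, Bottom, HillSlope).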

FGFR3 = target: T2, FGFR3 (Homo sapiens, UniProt P22607); experiment: FGFR3 kinase activity inhibition assay (LanthaScreen TR-FRET); format: biochemical; conditions: for IC50: FGFR3 kinase, TR-FRET, read-out: IC50 (nM) FGFR3; for Selectivity (X) FGFR1/FGFR3: ratio of IC50 FGFR1/FGFR3, selectivity towards FGFR3; for Selectivity (X) FGFR2/FGFR3: ratio of IC50 FGFR2/FGFR3, selectivity towards FGFR3; for Selectivity (X) FGFR4/FGFR3: ratio of IC50 FGFR4/FGFR3, selectivity towards FGFR3
T2 construct: FGFR3's cytoplasmic domain [436-806 (terminal) amino acids]; purchased Carna 08-135
T2 sequence (P22607 436-806): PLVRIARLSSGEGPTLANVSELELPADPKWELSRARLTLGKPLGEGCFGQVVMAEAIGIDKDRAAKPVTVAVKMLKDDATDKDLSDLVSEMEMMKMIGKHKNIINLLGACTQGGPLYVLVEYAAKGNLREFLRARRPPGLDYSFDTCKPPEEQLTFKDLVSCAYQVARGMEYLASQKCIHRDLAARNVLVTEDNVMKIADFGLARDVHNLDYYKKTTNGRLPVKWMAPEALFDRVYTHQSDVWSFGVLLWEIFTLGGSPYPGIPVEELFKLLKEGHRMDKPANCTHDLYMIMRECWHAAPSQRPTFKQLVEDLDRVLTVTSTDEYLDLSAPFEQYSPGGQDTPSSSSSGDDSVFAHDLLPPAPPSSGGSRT
Outline: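 Read-out is TR-FRET, with the 520 nm/495 nm emission ratio normalised to DMSO (max) and enzyme-free (min) controls. Enzyme was the FGFR3 cytoplasmic domain, residues 436-806. EDTA (10 mM) stopped the reaction, followed by 60 min at 22 °C before reading.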

[1] = system: Ba/F3-FGFR3-BAIAP2L1 cells; experiment: Inhibition of proliferation activity of Ba/F3-FGFR3-BAIAP2L1 cells (CellTiter-Glo); format: cell-based; conditions: for IC50: read-out: IC50 (nM) Ba/F3-FGFR3-BAIAP2L1; for Selectivity (X) FGFR1/FGFR3: ratio of IC50 Ba/F3-BCR-FGFR1 to IC50 Ba/F3-FGFR3-BAIAP2L1
Protocol: The present experiment used CellTiter-Glo® Luminescent Cell Viability Assay (Promega: G7573) kit, which was a homogeneous cell viability detection method and determined the cell viability of cultured cells by quantifying ATP. • ① Ba/F3-BCR-FGFR1 or Ba/F3-FGFR3-BAIAP2L1 cells were cultured in 1640 complete medium (Gibco: 11879020) (10% FBS (Gibco: 10091-148)+1% Pen Strep (Gibco: 15140122)) under the condition of 37°C and 5% CO2. • (2) The cells in logarithmic growth phase were harvested and counted using a […]. The trypan blue exclusion method was used to detect cell viability to ensure the cell viability was above 90%. • ③ The cell density was adjusted using 1640 complete medium, and then, the cells were seeded into a 96-well cell culture plate at 90 µL/well with a total of 2000 cells. • ④ A 10-fold drug solution was prepared starting from a maximum drug concentration of 10 µM and 4-fold serially diluted into10 concentrations. […] The luminescence values were read to collect the data. • ⑩ The data were analyzed using XLFit excel plugin version 5.5.0.5, and fitted with non-linear S-curve regression to obtain the dose-response curves and thus calculate the IC50 values. Y = Bottom + (Top-Bottom)/((1+(IC50/X))^(∧) HillSlope [formula]
(§1) "Top" refers to the maximum response, "Bottom" refers to the minimum response, and "HillSlope" refers to the slope of the curve.
"Max" represents the average value of the cell control+DMSO, and "Min" represents the average value of the medium control+DMSO.

[2] = system: RT112 cells (bladder cancer cells); experiment: Inhibition of proliferation activity of RT112 cells (CellTiter-Glo); format: cell-based; conditions: Homo sapiens, read-out: IC50 (nM) RT112
Protocol: The present experiment used CellTiter-Glo® Luminescent Cell Viability Assay (Promega: G7573) kit, which was a homogeneous cell viability detection method and determined the cell viability of cultured cells by quantifying ATP. • ① RT112 cells were cultured in MEM complete medium (Gibco: 51200038) (10% FBS (Gibco: 10091-148)+1% Pen Strep (Gibco: 15140122)+1% NEAA (Gibco: 11140050)) under the condition of 37°C and 5% CO2. • (2) The cells in logarithmic growth phase were harvested and counted using a […]. The trypan blue exclusion method was used to detect cell viability to ensure the cell viability was above 90%. • ③ The cell density was adjusted using MEM complete medium, and then, the cells were seeded into a 96-well cell culture plate at 90 µL/well with a total of 3000 cells. • ④ The 96-well plate with the cells was placed under the condition of 37°C and 5% CO2 to be cultured for 24 hours. • ⑤ 24 hours later, a 10-fold drug solution was prepared starting from a maximum drug concentration of 10 µM and 4-fold serially diluted into10 concentrations. Then, 10 µL of each of the serially diluted compounds was transferred to the corresponding experimental wells of a 96-well cell plate, with two replicates for each drug concentration. • ⑥ The 96-well plate with the cells that had been treated with the drugs was placed under the condition of 37°C and 5% CO2 to be further cultured for 72 hours, and then analyzed by CTG. • ⑦ The CTG reagent was melted and the cell plate was equilibrated to room temperature for 30 minutes. • ⑧ 50 µL of the CTG solution was added to each well. • ⑨ The cell plate was shaken on an orbital shaker for 5 minutes to lyse the cells. • ⑩ The cell plate was placed at room temperature for 20 minutes to stabilize the luminescence signal. The luminescence values were read to collect the data. • ⑪ The data were analyzed using XLFit excel plugin version 5.5.0.5, and fitted with non-linear S-curve regression to obtain the dose-response curves and thus calculate the IC50 values. Y = Bottom + (Top-Bottom)/((1+(IC50/X))^(∧) HillSlope [formula]
as §1
"Max" represents the average value of the cell+DMSO control, and "Min" represents the average value of the medium control+DMSO.

[3] = Ba/F3-FGFR3-BAIAP2L1 cells, 72 hours, CTG
[4] = RT-112, RT112 cells, 72 hours, CTG

T1 sequence (P11362 398-822): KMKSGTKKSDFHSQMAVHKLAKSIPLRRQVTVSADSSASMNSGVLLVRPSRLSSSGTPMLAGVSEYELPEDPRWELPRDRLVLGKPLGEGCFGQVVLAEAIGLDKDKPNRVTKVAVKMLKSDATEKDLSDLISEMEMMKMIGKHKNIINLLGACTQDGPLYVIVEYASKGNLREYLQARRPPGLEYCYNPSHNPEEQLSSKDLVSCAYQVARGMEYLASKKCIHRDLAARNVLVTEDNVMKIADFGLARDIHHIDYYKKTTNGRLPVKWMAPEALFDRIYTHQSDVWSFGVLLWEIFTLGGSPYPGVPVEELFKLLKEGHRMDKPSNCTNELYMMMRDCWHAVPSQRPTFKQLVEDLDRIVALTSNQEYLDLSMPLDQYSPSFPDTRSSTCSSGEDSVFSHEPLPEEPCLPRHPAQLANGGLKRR

Compound	IC50 (FGFR1) [nM]	IC50 (FGFR3) [nM]	Selectivity (X) FGFR1/FGFR3 (FGFR3)	Selectivity (X) FGFR2/FGFR3 (FGFR3)	Selectivity (X) FGFR4/FGFR3 (FGFR3)	IC50 [1, 3] [nM]	IC50 [2, 4] [nM]	Selectivity (X) FGFR1/FGFR3 [1] [X]	IC50 ([1]; 72 h) [nM]	IC50 ([2]; RT-112, 72 h) [nM]
Cc1cc2nccnc2c(C(C)Oc2ccc3[nH]nc(-c4cnn(C)c4)c3c2)n1 (stereo not shown) [Example 183, 7-methyl-5-(1-((3-(1-methyl-1H-pyrazol-4-yl)-1H-indazol-5-yl)oxy)ethyl)pyridino [3,4-b]pyrazine]	10 to 100	< 1	B (B represents 20 ≤ multiple X<50)	A (A represents 1 ≤ multiple X<20)	B (B represents 20 ≤ multiple X<50)	0.4	9.7	139	–	–
C[C@@H](Oc1cc(F)c2[nH]nc(-c3cnn(CCN4CCOCC4)c3)c2c1)c1c(Cl)cncc1Cl [Example 12, (R)-4-(2-(4-(5-(1-(3,5-dichloropyridin-4-yl)ethoxy)-7-fluoro-1H-indazol-3-yl)-1H-pyrazol-1-yl)ethyl)morph oline]	10 to 100	1 to 10	B (B represents 20 ≤ multiple X<50)	A (A represents 1 ≤ multiple X<20)	C (C represents 50 ≤ multiple X<100)	4.6	43.1	129	–	–
CC(Oc1ccc2[nH]nc(-c3cnn(C)c3)c2c1)c1cccc2nccnc12 (stereo not shown) [Example 92, 5-(1-((3-(1-methyl-1H-pyrazol-4-yl)-1H-indazol-5-yl)oxy)ethyl)quin oxaline]	1 to 10	< 1	A (A represents 1 ≤ multiple X<20)	A (A represents 1 ≤ multiple X<20)	A (A represents 1 ≤ multiple X<20)	2.8	24.3	35	–	–
C[C@@H](Oc1ccc2[nH]nc(-c3ccc(S(C)(=N)=O)nc3)c2c1)c1c(Cl)cncc1Cl (stereo partly drawn) [Comparative Example 85, (5-(5-((R)-1-(3,5-dichloropyridin-4-yl)ethoxy)-1H-indazol-3-yl)pyridin-2-yl)(imino)(methyl)-sulfanone, reference compound]	–	–	–	–	–	–	–	–	5.4	58.8
CC(Oc1ccc2[nH]nc(-c3cnn(C)c3)c2c1)c1c(CF)ccc2ncccc12 (stereo not shown) [Example 130, 6-(fluoromethyl)-5-(1-((3-(1-methyl-1H-pyrazol-4-yl)-1H-indazol-5-yl)oxy)ethyl)q uinoline]	10 to 100	–	–	–	–	12.9	37.9	–	–	–

Continued, in another order:

IC50 (FGFR1) [nM]	IC50 (FGFR3) [nM]	Selectivity (X) FGFR1/FGFR3 (FGFR3)	Selectivity (X) FGFR2/FGFR3 (FGFR3)	Selectivity (X) FGFR4/FGFR3 (FGFR3)	IC50 [1, 3] [nM]	IC50 [2, 4] [nM]	Compound	Selectivity (X) FGFR1/FGFR3 [1] [X]	IC50 ([1]; 72 h) [nM]	IC50 ([2]; RT-112, 72 h) [nM]
1 to 10	< 1	A (A represents 1 ≤ multiple X<20)	–	–	3.1	34.5	CC(Oc1cc2c(-c3cnn(C)c3)n[nH]c2cc1F)c1cc(Cl)cc2nccnc12 (stereo not shown) [Example 227, 7-chloro-5-(1-((6-fluoro-3-(1-methyl-1H-pyrazol-4-yl)-1H-indazol-5-yl)oxy)ethyl)qu inoxaline]	126	–	–
1 to 10	< 1	A (A represents 1 ≤ multiple X<20)	A (A represents 1 ≤ multiple X<20)	C (C represents 50 ≤ multiple X<100)	0.9	15.5	CC(Oc1ccc2[nH]nc(-c3cnn(C)c3)c2c1)c1nc(C(F)F)cc2nccnc12 (stereo not shown) [Example 236, 7-(difluoromethyl)-5-(1-((3-(1-methyl-1H-pyrazol-4-yl)-1H-indazol-5-yl)oxy)ethyl)pyridino[3,4-b]pyrazine]	182	–	–
1 to 10	< 1	A (A represents 1 ≤ multiple X<20)	–	–	1.2	14	C[C@@H](Oc1ccc2[nH]nc(-c3cnn(CCN4CCN(C)C(=O)C4)c3)c2n1)c1c(Cl)cncc1Cl [Example 54, (R)-4-(2-(4-(5-(1-(3,5-dichloropyridin-4-yl)ethoxy)-1H-pyrazolo[4,3-b]pyridin-3-yl)-1H-pyrazol-1-yl)ethyl)-1-methylpiperazin-2-one]	147	–	–

Source: patent EP4644383A1 (Jiangsu Yahong Meditech Co., Ltd., priority 2022, dated 2024)
